These results are taken from publication PMC5902452, “In silico optimization of a guava antimicrobial peptide enables combinatorial exploration for peptide design” (Nature Communications, 2018).

Converted amounts (≈) assume the structure as drawn. Peptide text beside a SMILES is read from it. Bounds are passed on as bounds.

Broadly, the MIC is the least concentration at which growth counts as inhibited. Higher therefore signals weaker potency.

Data set [1] relates to P. aeruginosa H1001 (fliC::luxCDABE). The data set is classed as cell-based, Pseudomonas aeruginosa. The following applies: SPOT-synthesized unpurified crude peptide (~70% purity); bioluminescent engineered P. aeruginosa; BM2 medium; 4 h, 37 °C; reduction of luminescence; 200 to 3 μg mL−1 tested. The procedure: A peptide array composed of 20 peptides (15 guavanins, 4 Pg-AMP1 fragments, and magainin 2) was designed and synthesized by Kinexus Bioinformatics Corporation (Vancouver, BC). Peptides were produced in a standard mass of 80 μg by using cellulose support in SPOT technology. The crude synthetic peptides were obtained from cellulose membrane discs that had already been treated with ammonia gas to release the peptides from the membrane. Peptides were then dissolved overnight in distilled water and subsequently evaluated for their biological activities, as described below.
The antimicrobial activity of the synthesized peptides was evaluated against an engineered luminescent P. aeruginosa H1001 (fliC::luxCDABE) strain in 96-well microplates. Aqueous solutions of peptides released from the cellulose spots were diluted twofold in BM2 medium [62 mM potassium phosphate buffer pH 7; 2 mM MgSO4; 10 μM FeSO4; 0.4% (wt/vol) glucose] down the eight wells of a 96-well plate, achieving a final volume of 25 μL in each well. Subsequently, 50 μL of overnight culture of P. aeruginosa H1001 (fliC::luxCDABE) were subcultured in 5 mL of fresh LB media and grown until they reached an OD600 of 0.4. This growing bacteria culture was then diluted 4:100 (v/v) into fresh BM2 media and 25 μL of this diluted bacterial culture was transferred to the microplate wells containing 25 μL of peptide solution. The final peptide concentrations tested ranged from 200 to 3 μg mL^−1. The plates were incubated for 4 h at 37 °C with constant shaking at 50 rpm. Luminescence was measured on a Tecan […]luor Plus Microplate Reader (Tecan US, Morrisville, NC). The antimicrobial activity was evaluated by the ability of the peptides to reduce the luminescence of P. aeruginosa-lux strain compared to untreated cells. The AMP magainin 2 and the carbapenem meropenem were used as positive controls and distilled water was used as a negative control.

The subject of another data set is human erythrocytes. In words: Hemolytic assay. The note with it: SPOT-synthesized crude peptides; human red blood cells in NaCl 0.85%, 1 h, 37 °C; hemoglobin release at 546 nm; highest concentration 200 μg mL−1; 100% of hemolysis was not observed.
The test system of data set [2] is E. coli ATCC 25922. As to the kind of experiment: SYTOX green uptake assay (membrane permeabilization). Format: cell-based, Escherichia coli. The following applies: 5 µM, positive control. How it is done:
SG is impermeant to live cells and when the cell membrane is damaged, this dye penetrates into the cell and binds to intracellular DNA, due to its high-affinity to nucleic acids, leading to an increase in fluorescence. Exponentially growing bacteria (6 × 10^5 cfu mL^−1) were resuspended in PBS after centrifugation (1000 × g, 10 min, 4 °C) and washing steps. About 792 μL of the bacterial suspension was pre-incubated with 8 μL of 100 μM SG during 30 min at 37 °C in the dark. […] Results correspond to a representative experiment with negative (PBS) and positive (melittin) controls. Three independent experiments were performed.

Data set [3] deals with E. coli ATCC 25922. In words: Membrane polarization assay with DiSC3(5). Format: cell-based, Escherichia coli. The following applies: 5 µM, positive control. How it is done: When the cytoplasmic membrane is intact, the fluorescent probe DiSC3(5) accumulates into the cytoplasmic membrane and then aggregates, causing self-quenching of the fluorescence. In the presence of a membrane-depolarizing agent, DiSC3(5) is released into the medium, leading to an increase in fluorescence that can be monitored over time[59]. Briefly, exponentially growing bacteria were centrifuged (1000 × g, 10 min, 4 °C), washed with PBS, and resuspended in the same buffer to an A630 of 0.1; then 700 µL of bacteria were pre-incubated with 1 µM DiSC3(5) in the dark during 10 min at 37 °C, and then 100 µL of 1 mM KCl were added in order to equilibrate the cytoplasmic and external K^+ concentrations. […] Three independent experiments were performed and results correspond to a representative experiment with negative (PBS) and positive (melittin) controls.

Method for human erythrocytes: Fresh human venous blood was collected from volunteers in Vacutainer collection tubes containing sodium heparin as an anticoagulant (BD Biosciences, Franklin Lakes, NJ). The blood was centrifuged applying 151 × g force (1500 rpm) and the serum was removed and the blood cells were replaced and washed three times with the same volume of sterile NaCl 0.85% solution. Concentrated red blood cells were diluted tenfold in NaCl 0.85% solution and then exposed at twofold dilutions of peptides for 1 h at 37 °C, at identical concentrations used for antimicrobial assays, in the ratio of 1:1 (v/v), achieving a final volume of 100 μL. The assay was carried out in 96-well polypropylene microtiter plates. The positive control wells contained 1% of Triton X-100, representing 100% cell lysis, and negative control wells contained sterile saline. Hemoglobin release was monitored chromogenically at 546 nm using a microplate reader.

In data set [1], `CC[C@H](C)[C@H](NC(=O)[C@H](CO)NC(=O)[C@H](CCC(=O)O)NC(=O)[C@H](Cc1ccc(O)cc1)NC(=O)[C@@H](NC(=O)[C@H](CCC(N)=O)NC(=O)[C@@H](N)CCCNC(=N)N)[C@@H](C)CC)C(=O)N[C@@H](CCC(=O)O)C(=O)N[C@@H](CCC(N)=O)C(=O)N[C@@H](C)C(=O)N[C@@H](CC(C)C)C(=O)N[C@@H](CCCNC(=N)N)C(=O)N[C@@H](CCCNC(=N)N)C(=O)NCC(=O)N[C@@H](Cc1ccc(O)cc1)C(=O)N[C@@H](CCCNC(=N)N)C(=O)N[C@@H](CO)C(=O)N[C@@H](Cc1ccc(O)cc1)C(=O)N[C@@H](CCCNC(=N)N)C(=O)N[C@@H](CCCNC(=N)N)C(N)=O` [Guavanin 7] (H-RQIYESIEQALRRGYRSYRR-NH2) showed an MIC of 200 µg/mL (≈ 76.9 µM). The same molecule showed a Hemolysis in the data set with human erythrocytes above 200 µg/mL.
The like results for `CC[C@H](C)[C@H](NC(=O)CNC(=O)[C@H](CCCNC(=N)N)NC(=O)[C@H](CCC(N)=O)NC(=O)CNC(=O)[C@H](CCCCN)NC(=O)[C@H](CCCNC(=N)N)NC(=O)[C@H](CC(C)C)NC(=O)[C@H](C)NC(=O)[C@H](CCCNC(=N)N)NC(=O)[C@H](CCC(=O)O)NC(=O)[C@H](Cc1ccc(O)cc1)NC(=O)[C@H](C)NC(=O)[C@H](CCC(=O)O)NC(=O)[C@H](Cc1ccc(O)cc1)NC(=O)[C@H](Cc1ccc(O)cc1)NC(=O)[C@H](CO)NC(=O)[C@@H](N)CCCNC(=N)N)C(=O)N[C@@H](CCCNC(=N)N)C(=O)N[C@@H](CCCNC(=N)N)C(N)=O` [Guavanin 8] (H-RSYYEAYERALRKGQRGIRR-NH2) were, in that order, 100 µg/mL (≈ 39.6 µM) and above 200 µg/mL.
The like results for `CSCC[C@H](NC(=O)[C@H](Cc1ccc(O)cc1)NC(=O)[C@H](C)NC(=O)[C@@H](N)CCCNC(=N)N)C(=O)N[C@@H](CCC(=O)O)C(=O)N[C@@H](C)C(=O)N[C@@H](CC(C)C)C(=O)N[C@@H](CCCNC(=N)N)C(=O)N[C@@H](CCC(N)=O)C(=O)N[C@@H](C)C(=O)N[C@@H](CCC(=O)O)C(=O)N[C@@H](CCCNC(=N)N)C(=O)N[C@@H](CC(C)C)C(=O)NCC(=O)N[C@@H](CC(N)=O)C(=O)N[C@@H](CCCNC(=N)N)C(=O)N[C@H](C(=O)N[C@@H](C)C(=O)N[C@@H](CCCNC(=N)N)C(=O)N[C@@H](CCCNC(=N)N)C(N)=O)[C@@H](C)O` [Guavanin 9] (H-RAYMEALRQAERLGNRTARR-NH2) were, in that order, above 200 µg/mL and above 200 µg/mL.
The like results for `CSCC[C@H](NC(=O)[C@H](CC(C)C)NC(=O)[C@H](Cc1ccc(O)cc1)NC(=O)[C@@H](N)CCCNC(=N)N)C(=O)N[C@@H](CCC(=O)O)C(=O)N[C@@H](Cc1ccc(O)cc1)C(=O)N[C@@H](C)C(=O)N[C@@H](CCC(=O)O)C(=O)N[C@@H](CCC(N)=O)C(=O)N[C@@H](C)C(=O)N[C@@H](CCCCN)C(=O)N[C@@H](CCCNC(=N)N)C(=O)N[C@@H](CC(=O)O)C(=O)N[C@@H](C)C(=O)N[C@@H](CCCCN)C(=O)N[C@@H](CCCNC(=N)N)C(=O)N[C@@H](C)C(=O)N[C@@H](Cc1ccc(O)cc1)C(=O)N[C@@H](CCCNC(=N)N)C(=O)N[C@@H](CCCNC(=N)N)C(N)=O` [Guavanin 10] (H-RYLMEYAEQAKRDAKRAYRR-NH2) were, in that order, 200 µg/mL (≈ 77.7 µM) and above 200 µg/mL.
In data set [1], `CC[C@H](C)[C@H](NC(=O)[C@H](CC(C)C)NC(=O)[C@H](CCC(=O)O)NC(=O)[C@H](CCSC)NC(=O)[C@H](CC(C)C)NC(=O)[C@H](CCC(N)=O)NC(=O)[C@@H](N)CCCNC(=N)N)C(=O)N[C@@H](CCC(=O)O)C(=O)N[C@@H](CCC(N)=O)C(=O)N[C@@H](C)C(=O)N[C@@H](CCC(=O)O)C(=O)N[C@@H](CCCNC(=N)N)C(=O)N[C@@H](Cc1ccc(O)cc1)C(=O)NCC(=O)N[C@@H](CC(N)=O)C(=O)N[C@@H](CCCNC(=N)N)C(=O)N[C@@H](Cc1ccccc1)C(=O)N[C@@H](Cc1ccc(O)cc1)C(=O)N[C@@H](CCCNC(=N)N)C(=O)N[C@@H](CCCNC(=N)N)C(N)=O` [Guavanin 11] (H-RQLMELIEQAERYGNRFYRR-NH2) gave a minimum inhibitory concentration (MIC) above 200 µg/mL. In the data set on human erythrocytes, this molecule displayed a Hemolysis above 200 µg/mL.
As for `CC[C@H](C)[C@H](NC(=O)[C@H](C)NC(=O)[C@H](CCC(N)=O)NC(=O)[C@H](CCC(=O)O)NC(=O)[C@H](Cc1ccc(O)cc1)NC(=O)[C@H](CC(C)C)NC(=O)[C@H](CCC(=O)O)NC(=O)[C@H](CCSC)NC(=O)[C@H](CC(C)C)NC(=O)[C@H](CCCCN)NC(=O)[C@@H](N)CCCNC(=N)N)C(=O)N[C@@H](CCCNC(=N)N)C(=O)N[C@@H](Cc1ccc(O)cc1)C(=O)NCC(=O)N[C@@H](CCCCN)C(=O)N[C@@H](CCCNC(=N)N)C(=O)N[C@@H](CO)C(=O)N[C@@H](Cc1ccc(O)cc1)C(=O)N[C@@H](CCCNC(=N)N)C(=O)N[C@@H](CCCNC(=N)N)C(N)=O` [Guavanin 12] (H-RKLMELYEQAIRYGKRSYRR-NH2), the MIC in data set [1] came to 25 µg/mL (≈ 9.56 µM). Also, in the data set with human erythrocytes, the Hemolysis is above 200 µg/mL.
The like results for `CSCC[C@H](NC(=O)[C@H](Cc1ccc(O)cc1)NC(=O)[C@H](CCCNC(=N)N)NC(=O)[C@@H](N)CCCNC(=N)N)C(=O)N[C@@H](CCC(=O)O)C(=O)N[C@@H](CS)C(=O)N[C@@H](Cc1ccc(O)cc1)C(=O)N[C@@H](CCC(=O)O)C(=O)N[C@@H](CCC(N)=O)C(=O)N[C@@H](C)C(=O)N[C@@H](CCC(=O)O)C(=O)N[C@@H](CCCNC(=N)N)C(=O)N[C@@H](Cc1ccc(O)cc1)C(=O)N[C@@H](Cc1ccccc1)C(=O)N[C@@H](CCCNC(=N)N)C(=O)N[C@@H](CCCNC(=N)N)C(=O)N[C@@H](Cc1ccccc1)C(=O)NCC(=O)N[C@@H](CCCNC(=N)N)C(=O)N[C@@H](CCCNC(=N)N)C(N)=O` [Guavanin 13] (H-RRYMECYEQAERYFRRFGRR-NH2) were, in that order, 25 µg/mL (≈ 9.02 µM) and above 200 µg/mL.
The like results for `CC[C@H](C)[C@H](NC(=O)[C@H](CCCNC(=N)N)NC(=O)[C@H](CC(N)=O)NC(=O)CNC(=O)[C@H](Cc1ccc(O)cc1)NC(=O)[C@H](CCCNC(=N)N)NC(=O)[C@H](CO)NC(=O)[C@H](C)NC(=O)[C@H](CCC(N)=O)NC(=O)[C@H](CCC(=O)O)NC(=O)[C@H](Cc1ccc(O)cc1)NC(=O)[C@H](CS)NC(=O)[C@H](CCCCN)NC(=O)[C@H](CCSC)NC(=O)[C@H](Cc1ccccc1)NC(=O)[C@H](CO)NC(=O)[C@@H](N)CCCNC(=N)N)C(=O)N[C@@H](CC(C)C)C(=O)N[C@@H](CCCNC(=N)N)C(=O)N[C@@H](CCCNC(=N)N)C(N)=O` [Guavanin 14] (H-RSFMKCYEQASRYGNRILRR-NH2) were, in that order, 12.5 µg/mL (≈ 4.93 µM) and above 200 µg/mL.
Turning to `CC(C)C[C@H](NC(=O)[C@H](CCCCN)NC(=O)[C@@H](N)CCCNC(=N)N)C(=O)N[C@H](C(=O)N[C@@H](CCC(=O)O)C(=O)N[C@@H](CS)C(=O)N[C@@H](Cc1ccc(O)cc1)C(=O)N[C@@H](CCC(=O)O)C(=O)N[C@@H](CCCNC(=N)N)C(=O)N[C@@H](C)C(=O)N[C@@H](CCC(=O)O)C(=O)N[C@@H](CCCNC(=N)N)C(=O)N[C@@H](CC(=O)O)C(=O)N[C@@H](C)C(=O)N[C@@H](CC(N)=O)C(=O)N[C@@H](CCCNC(=N)N)C(=O)N[C@@H](CO)C(=O)NCC(=O)N[C@@H](CCCNC(=N)N)C(=O)N[C@@H](CCCNC(=N)N)C(N)=O)C(C)C` [Guavanin 15] (H-RKLVECYERAERDANRSGRR-NH2), the MIC in data set [1] stood at 200 µg/mL (≈ 81.2 µM). Also, in the data set on human erythrocytes, the Hemolysis is above 200 µg/mL.
As for melittin [reference compound], in the data set on E. coli ATCC 25922 [2], the “SYTOX Green influx (membrane permeabilization)” value was “rapid and maximal SG fluorescence signal”. For the same molecule, the “DiSC3(5) fluorescence change (membrane potential)” value in the data set with E. coli ATCC 25922 [3] is reported as “rapid increase in the fluorescence signal”.
